# Columns and labels:
# [1] = tested on: Isolated Rat Aortic Tissue; experiment: Aortic smooth muscle relaxing activity: inhibition of KCl-evoked contracture in isolated rat aortic rings; assay type: cell-based, Sprague-Dawley rats; conditions: isolated rat thoracic aorta rings, 25 mM KCl; read-out: IC50 of Aorta Contraction
# Description: Aortic smooth muscle relaxing activity of the compounds of this invention was established in accordance with standard pharmaceutically accepted test procedures in representative compounds as follows:
# Sprague-Dawley rats (150-200 g) are rendered unconscious by CO2 asphyxiation and then euthanized by cervical dislocation. The thoracic aorta is removed into warm (37 deg. C.) Krebs-Henseleit solution. The aorta is cleaned of fat and loose adventitia and cut into rings 3-4 mm in width. The rings are subsequently suspended between two stainless steel wire tissue holders in a 10 ml tissue bath. One wire tissue holder is attached to fixed hook while the other is attached to an isometric force transducer. Resting tension is set at 1.0 g. The tissues are allowed to recover for a period of 60 mins prior to beginning the experiment. The tissues are challenged with 25 mM KCl to elicit a contracture. The tissue are then washed repeatedly with fresh Krebs-Henseleit solution over a period of 30 rains and allowed to recover to baseline tension. 25 mM KCl is then introduced into the tissue bath to evoke a contracture that is allowed to stabilize for not less than 45 rains. Increasing concentrations of test compound or vehicle are then added to the tissue bath in a cumulative fashion.
# Isometric force developed by the aortic rings is measured using force transducer and recorded on a polygraph. The percentage inhibition of contractile force evoked by each concentration of a given test compound is used to generate a concentration-response curve. The concentration required to elicit 50% inhibition of pre-drug contractile activity (IC50 concentration) is calculated from this concentration-response curve. The maximum percentage inhibition of contractile activity evoked by a test compound is also recorded for concentrations of test compound<or equal to 30 uM.
# Isolated Rat Bladder = experiment: Bladder smooth muscle relaxing activity: inhibition of KCl-enhanced contractions in isolated rat bladder strips; assay type: cell-based, Sprague-Dawley rats; conditions: 15 mM KCl; for IC50: 37 deg. C, read-out: IC50 of Bladder Contraction; for inhibition at up to 30 µM: at 30 μM, value in parentheses, read-out: % Inhibition of Bladder Contraction at 30 μM
# Description: Bladder smooth muscle relaxing activity of the compounds of this invention was established in accordance with standard pharmaceutically accepted test procedures in representative compounds as follows:
# Sprague-Dawley rats (150-200 g) are rendered unconscious by CO2 asphyxiation and then euthanized by cervical dislocation. The bladder is removed into warm (37 deg. C) physiological salt solution (PSS) of the following composition (mM): NaCl, 118.4; KCl, 4.7; CaCl2, 2.5; […]; NaHCO3, 24.9; KH2 PO4, 1.2; glucose, 11.1; EDTA, 0.023; gassed with […]; pH 7.4. The bladder is opened and then cut into strips 1-2 mm in width and 7-10 mm in length. The strips are subsequently suspended in a 10 ml tissue bath under an initial resting tension of 1.5 g. The strips are held in place by two surgical clips one of which is attached to fixed hook while the other is attached to an isometric force transducer. […] The carbachol is then washed out and the tissue allowed to relax to its resting level of activity. Following 1 further 30 min period of recovery an additional 15 mM KCl are introduced into the tissue bath. This increase in KCl concentration results in a large increase in the amplitude of spontaneous contractions (and initiation of contractions in previously quiescent strips) superimposed upon a small increase in basal tone. Following stabilization of this enhanced level of contractile activity, incremental increases in the concentration of test compound or vehicle are introduced into the tissue bath. Contractile activity is measured for each compound or vehicle concentration during the last rain of a 30 rain challenge.
# Isometric force developed by the bladder strips is measured using a […] to elicit 50% inhibition of pre-drug contractile activity (IC50 concentration) is calculated from this concentration-response curve. The maximum percentage inhibition of contractile activity evoked by a test compound is also recorded for concentrations of test compound<or equal to 30 uM.
SMILES,IC50 [1] [nM],IC50 (Isolated Rat Bladder) [nM],inhibition at up to 30 µM (Isolated Rat Bladder) [%]
"CC(C)Oc1c(-c2ccc3c(c2)[C@@H](N2Cc4ccccc4C2=O)[C@H](O)C(C)(C)O3)c(=O)c1=O (relative stereo) [Example 3, 3-[trans-3-hydroxy-2,2-dimethyl-4-(1-oxo-1,3-dihydroisoindol-2-yl)-chroman-6-yl]-4-isopropoxy-cyclobut-3-ene-1,2-dione]",1160 ± 210,10100 ± 390,–
"CC1(C)Oc2ccc(-c3c(N)c(=O)c3=O)cc2[C@@H](N2Cc3ccccc3C2=O)[C@@H]1O (relative stereo) [Example 4, 4-Amino-3-[trans-3-hydroxy-2,2-dimethyl-4-(1-oxo-1,3-dihydroisoindol-2-yl)-chroman-6-yl]-cyclobut-3-ene-1,2-dione]",170 ± 40,190 ± 20,–
"CC1(C)Oc2ccc(-c3c(NCCO)c(=O)c3=O)cc2[C@@H](N2Cc3ccccc3C2=O)[C@@H]1O (relative stereo) [Example 5, 3-[trans-3-Hydroxy-2,2-dimethyl-4-(1-oxo-1,3-dihydroisoindol-2-yl),-chroman-6-yl]-4-(2-hydroxy-ethylamino)-cyclobut-3-ene-1,2-dione]",–,–,14
"CC1(C)Oc2ccc(-c3c(N4CCCC4)c(=O)c3=O)cc2[C@@H](N2Cc3ccccc3C2=O)[C@@H]1O (relative stereo) [Example 6, 3-[trans-3-Hydroxy-2,2-dimethyl-4-(1-oxo-1,3-dihydroisoindol-2-yl)-chroman-6-yl]-4-pyrrolindin-1-yl-cyclobut-3-ene-1,2-dione]",–,–,33
"CNc1c(-c2ccc3c(c2)[C@@H](N2Cc4ccccc4C2=O)[C@H](O)C(C)(C)O3)c(=O)c1=O (relative stereo) [Example 7, 3-[trans-3-Hydroxy-2,2-dimethyl-4-(1-oxo-1,3-dihydroisoindol-2-yl)-chroman-6-yl]-4-methylamino-cyclobut-3-ene-1,2-dione]",830 ± 240,1620,–
"CC1(C)Oc2ccc(-c3c(O)c(=O)c3=O)cc2[C@@H](N2Cc3ccccc3C2=O)[C@@H]1O (relative stereo) [Example 8, 3-Hydroxy-4-[trans-3-hydroxy-2,2-dimethyl-4-(1-oxo-1,3-dihydroisoindol-2-yl)-chroman-6-yl]-cyclobut-3-ene-1,2-dione]",–,21900,–
"Cc1c(-c2ccc3c(c2)[C@@H](N2Cc4ccccc4C2=O)[C@H](O)C(C)(C)O3)c(=O)c1=O (relative stereo) [Example 9, 3-[trans-3-Hydroxy-2,2-dimethyl-4-(1-oxo-1,3-dihydro-isoindol-2-yl)-chroman-6-yl]-4-methyl-cyciobut-3-ene-1,2-dione]",15 ± 7,110,–

# Source: patent publication US5500442A, “Cyclobut-3-ene-1,2-dione derivatives as smooth muscle relaxants” (American Home Products Corporation, priority 1994, dated 1996)
